According to publication PMC8911752, “The Synthesis and Initial Evaluation of MerTK Targeted PET Agents” (Molecules, 2022):

How the values were obtained:
[1] = target: T1, MerTK (Homo sapiens, UniProt Q12866); parameters: method as in PMID 34038857; conditions: read-out: Ki against MerTK; cited from earlier work
T1 sequence (Q12866 21-999): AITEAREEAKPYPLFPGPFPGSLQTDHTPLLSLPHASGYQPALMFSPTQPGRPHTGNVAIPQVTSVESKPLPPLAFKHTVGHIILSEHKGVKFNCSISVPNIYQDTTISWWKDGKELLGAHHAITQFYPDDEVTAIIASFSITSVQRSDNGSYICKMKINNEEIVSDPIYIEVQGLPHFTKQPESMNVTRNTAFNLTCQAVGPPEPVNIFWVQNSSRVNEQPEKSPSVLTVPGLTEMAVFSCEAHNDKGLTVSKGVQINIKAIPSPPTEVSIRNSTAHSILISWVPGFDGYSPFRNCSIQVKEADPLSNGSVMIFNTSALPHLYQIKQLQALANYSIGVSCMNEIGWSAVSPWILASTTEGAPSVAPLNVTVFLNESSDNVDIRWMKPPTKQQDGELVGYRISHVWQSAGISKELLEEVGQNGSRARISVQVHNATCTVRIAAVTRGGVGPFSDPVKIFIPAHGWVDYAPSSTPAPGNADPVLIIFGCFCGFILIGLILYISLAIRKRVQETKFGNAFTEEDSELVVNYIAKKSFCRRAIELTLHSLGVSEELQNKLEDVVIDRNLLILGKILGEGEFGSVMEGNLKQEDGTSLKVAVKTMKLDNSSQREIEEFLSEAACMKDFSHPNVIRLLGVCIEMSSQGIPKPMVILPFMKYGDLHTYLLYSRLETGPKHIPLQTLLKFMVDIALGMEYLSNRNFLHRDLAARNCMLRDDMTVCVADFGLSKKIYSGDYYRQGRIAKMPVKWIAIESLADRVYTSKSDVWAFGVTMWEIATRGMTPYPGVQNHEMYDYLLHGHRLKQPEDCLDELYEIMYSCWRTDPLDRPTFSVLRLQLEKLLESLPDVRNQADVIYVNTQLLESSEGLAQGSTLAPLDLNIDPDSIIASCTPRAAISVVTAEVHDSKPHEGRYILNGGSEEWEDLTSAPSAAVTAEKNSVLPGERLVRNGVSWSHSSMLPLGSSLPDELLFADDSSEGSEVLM

[2] = system: kinome; parameters: method as in PMID 34038857; conditions: at 100 nM, against the kinome; cited from earlier work
[3] = 1-octanol/water partition coefficient (LogP) by gamma counting; assay type: physicochemical; conditions: pH 7.4, sample pH around 7.4, n = 3, mean ± SD
Method: In order to evaluate the hydrophilicity and lipophilicity of this fluorine-18 labeled agent [^18F]-MerTK-6, we measured the 1-octanol/water partition coefficient (LogP) of [^18F]-MerTK-6. The resulting fractions were counted using a gamma counter. The reaction was repeated three times.
The LogP value of the [^18F]-MerTK-6 was calculated by the gamma particle counts of samples in the aqueous phase or 1-octanol phase by Automatic Gamma Counter 2480-0010 (PerkinElmer Instruments Inc., Waltham, MA, USA).
The [^18F]-MerTK-6 was collected after HPLC purification. After reformulation (pH value around 7.4), 20 µL [^18F]-MerTK-6 sample in saline was added to the mixture of 1 mL Mili-Q® water and 1 mL 1-octanol in a 5 mL Eppendorf tube. The tube was shacked thoroughly and then let stand still for 5 min. Then the 100 µL 1-octanol phase and 100 µL aqueous phase were subjected to a gamma counter separately and the gamma counts were recorded (n = 3). The LogP value was then calculated and expressed as a mean value± standard derivation.

[4] = system: B16F10 tumor-bearing mice; assay: PET imaging in B16F10 tumor-bearing mice; assay type: in vivo; conditions: for uptake in kidney / uptake in liver / uptake in muscle / uptake in tumor: i.v., PET ROI, n = 3
Method: Evaluation of the PET agent [^18F]-MerTK-6 was performed on B16F10 tumor-bearing mice. At 30 min post-injection (p.i), the uptake in tumor, liver, kidney, and muscle was 4.65 ± 1.25, 14.79 ± 0.99, 10.42 ± 1.01, and 2.51 ± 0.48%ID/g, respectively. The uptake at 2 h p.i. was 4.79 ± 0.24, 9.72 ± 1.56, 5.34 ± 1.25, and 1.55 ± 0.23%ID/g, respectively. Overall, the tumor uptake was maintained at ~5%ID/g and the tumor to muscle contrast increased to 3.09 at 2 h p.i, compared with 1.86 at 0.5 h p.i.
All animal studies were reviewed and approved by The University of North Carolina at Chapel Hill Institutional Animal Care and Use Committee. The B16F10 tumor cell was obtained from the LCCC tissue culture facility (the University of North Carolina at Chapel Hill, Chapel Hill, NC, USA). The B16F10 tumor-bearing […] mouse model was prepared as described previously. Briefly, B16/F10 cells were subcutaneously injected on the right flank of C57BL/6 female mice (Jackson Laboratory). The tumor volume was measured daily. When the tumor size reached 100 mm^3, the mice were used for PET imaging studies.
B16F10 tumor-bearing mice (n = 3/group) were intravenously injected via the tail vein with tracers. At 30 min and 120 min post-injection, a 10-min static emission scan was acquired with a SuperArgus small-animal PET/CT scanner. The regions of interests (ROIs) were drawn over the tumor and other organs and calculated as %ID/g. The mean uptake and standard deviation were calculated.

Row | logP [3] | tumor to muscle ratio ([4]; 0.5 h post-injection) | uptake in kidney ([4]; 30 min post-injection) | uptake in liver ([4]; 30 min post-injection) | uptake in muscle ([4]; 30 min post-injection) | uptake in tumor ([4]; 30 min post-injection) | tumor to muscle ratio ([4]; 2 h post-injection) | uptake in kidney ([4]; 2 h post-injection) | uptake in liver ([4]; 2 h post-injection) | uptake in muscle ([4]; 2 h post-injection) | uptake in tumor ([4]; 2 h post-injection) | tumor uptake (overall, maintained) ([4]; overall, 0.5 h to 2 h post-injection) | SMILES | Ki [1] | Ambit selectivity score S50 [2]
1 |  |  |  |  |  |  |  |  |  |  |  |  | CCC[C@H](C)Nc1ncc2c(C3CCN(C(=O)c4cc(C)nc(C)c4)CC3)cn(C3CCC(O)CC3)c2n1 (some centres unmarked) [UNC5293] | 190 pM | 0.041
2 | 1.56 ± 0.02 | 1.86 | 10.42 ± 1.01 %ID/g | 14.79 ± 0.99 %ID/g | 2.51 ± 0.48 %ID/g | 4.65 ± 1.25 %ID/g | 3.09 | 5.34 ± 1.25 %ID/g | 9.72 ± 1.56 %ID/g | 1.55 ± 0.23 %ID/g | 4.79 ± 0.24 %ID/g | ~ 5 %ID/g | C[C@H](Nc1ncc2c(C3CCN(CC[18F])CC3)cn([C@H]3CC[C@H](O)CC3)c2n1)c1ccccc1 [[^18F]-MerTK-6] |  | 
